Experimental data taken from patent publication US7968716B2, “Caspase inhibitors and uses thereof” (Vertex Pharmaceuticals Incorporated, priority 2000, dated 2011).

Columns and labels:
[1] = biological target: T1, recombinant, purified human Caspase-3 (Homo sapiens, UniProt P42574); assay: Caspase-3 enzyme assay, fluorogenic substrate cleavage; assay type: biochemical; conditions: second order rate constant of enzyme inactivation; substrate Acetyl-Asp-Glu-Val-Asp-amino-4-methylcoumarin
T1 sequence (P42574 29-175 limits assumed): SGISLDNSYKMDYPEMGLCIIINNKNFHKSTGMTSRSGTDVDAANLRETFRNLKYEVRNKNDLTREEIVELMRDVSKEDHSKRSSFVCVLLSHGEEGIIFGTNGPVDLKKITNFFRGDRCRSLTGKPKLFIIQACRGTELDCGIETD
T1 sequence (P42574 176-277 limits assumed): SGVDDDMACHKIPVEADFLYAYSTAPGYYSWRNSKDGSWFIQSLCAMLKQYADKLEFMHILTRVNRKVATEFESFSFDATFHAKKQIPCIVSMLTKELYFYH
From the text: (§1) The assays for caspase inhibition are based on the cleavage of a fluorogenic substrate by recombinant, purified human Caspases -1, -3, -7 or -8. The assays are run in essentially the same way as those reported by Garcia-Calvo et al. (J. Biol. Chem. 273 (1998), 32608-32613), using a substrate specific for each enzyme. The substrate for Caspase-1 is Acetyl-Tyr-Val-Ala-Asp-amino-4-methylcoumarin. The substrate for Caspases -3, -7 and -8 is Acetyl-Asp-Glu-Val-Asp-amino-4-methylcoumarin.
(§2) The observed rate of enzyme inactivation at a particular inhibitor concentration, kobs, is computed by direct fits of the data to the equation derived by Thornberry et al. (Biochemistry 33 (1994), 3943-3939) using a nonlinear least-squares analysis computer program (PRISM 2.0; GraphPad software). To obtain the second order rate constant, kinact, kobs values are plotted against their respective inhibitor concentrations and kinact values are subsequently calculated by computerized linear regression.

[2] = biological target: T2, recombinant, purified human Caspase-1 (Homo sapiens, UniProt P29466); assay: Caspase-1 enzyme assay, fluorogenic substrate cleavage; assay type: biochemical; conditions: second order rate constant of enzyme inactivation; substrate Acetyl-Tyr-Val-Ala-Asp-amino-4-methylcoumarin
T2 sequence (P29466 120-297 limits assumed): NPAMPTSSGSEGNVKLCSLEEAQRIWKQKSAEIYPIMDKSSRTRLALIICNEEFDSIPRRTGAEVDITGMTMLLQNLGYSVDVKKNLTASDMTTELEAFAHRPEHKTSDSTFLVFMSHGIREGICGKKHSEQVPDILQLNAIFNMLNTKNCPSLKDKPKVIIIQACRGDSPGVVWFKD
T2 sequence (P29466 317-404 limits assumed): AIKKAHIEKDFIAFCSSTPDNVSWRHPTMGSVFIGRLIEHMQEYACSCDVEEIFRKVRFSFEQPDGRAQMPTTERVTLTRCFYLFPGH
From the text: as §1, §2

[3] = biological target: T3, recombinant, purified human Caspase-7 (Homo sapiens, UniProt P55210); assay: Caspase-7 enzyme assay, fluorogenic substrate cleavage; assay type: biochemical; conditions: second order rate constant of enzyme inactivation; substrate Acetyl-Asp-Glu-Val-Asp-amino-4-methylcoumarin
T3 sequence (P55210 24-198 limits assumed): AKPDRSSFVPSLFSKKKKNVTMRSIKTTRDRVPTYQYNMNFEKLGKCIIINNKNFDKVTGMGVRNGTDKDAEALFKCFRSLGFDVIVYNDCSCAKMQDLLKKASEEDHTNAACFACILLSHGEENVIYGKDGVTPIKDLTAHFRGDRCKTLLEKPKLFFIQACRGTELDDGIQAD
T3 sequence (P55210 207-303 limits assumed): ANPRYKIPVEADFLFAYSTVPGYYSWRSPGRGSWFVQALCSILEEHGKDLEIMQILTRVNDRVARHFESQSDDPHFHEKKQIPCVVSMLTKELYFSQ
From the text: as §1, §2

[4] = tested on: IL-1β secretion from peripheral blood mononuclear cells (PBMC); assay: Inhibition of IL-1β secretion from PBMC; assay type: cell-based; conditions: human PBMC, LPS 50 ng/ml, 16-18 h, mature IL-1β in supernatant
Method: Processing of pre-IL-1β by caspase-1 can be measured in cell culture using a variety of cell sources. Human PBMC obtained from healthy donors provides a mixed population of lymphocyte and mononuclear cells that produce a spectrum of interleukins and cytokines in response to many classes of physiological stimulators.
The test compound is dissolved in Dimethyl Sulphoxide (DMSO, Sigma #D-2650) to give a 100 mM stock solution. This is diluted in complete medium consisting of RPMI containing 10% heat inactivated FCS (Gibco BRL #10099-141), 2 mM L-Glutamine (Sigma, #G-7513), 100 U penicillin and 100 μg/ml streptomycin (Sigma #P-7539). The final concentration range of test compound is from 100 μM down to 6 nM over eight dilution steps. The highest concentration of test compound is equivalent to 0.1% DMSO in the assay.
Human PBMC are isolated from Buffy Coats obtained from the blood bank using centrifugation on Ficoll-Paque leukocyte separation medium (Amersham, #17-1440-02) and the cellular assay is performed in a sterile 96 well flat-bottomed plate (Nunc). Each well contains 100 μl of the cell suspension, 1×10^5 cells, 50 μl of compound dilutions and 50 μl of LPS (Sigma #L-3012) at 50 ng/ml final concentration. Controls consist of cells +/− LPS stimulation and a serial dilution of DMSO diluted in the same way as compound. […]

[5] = biological target: recombinant, purified human Caspase-8 (Homo sapiens, UniProt Q14790); assay: Caspase-8 enzyme assay, fluorogenic substrate cleavage; assay type: biochemical; conditions: second order rate constant of enzyme inactivation; substrate Acetyl-Asp-Glu-Val-Asp-amino-4-methylcoumarin
From the text: as §1, §2

Jurkat E6.1 cells = assay: Anti-Fas induced apoptosis assay; assay type: cell-based; conditions: Homo sapiens, anti-Fas antibody CH-11 10 ng/ml, 16-18 hrs, DNA fragmentation
From the text: Cellular apoptosis may be induced by the binding of Fas ligand (FasL) to its receptor, CD95 (Fas). CD95 is one of a family of related receptors, known as death receptors, which can trigger apoptosis in cells via activation of the caspase enzyme cascade. The process is initiated by the binding of the adapter molecule FADD/MORT-1 to the cytoplasmic domain of the CD-95 receptor-ligand complex. Caspase-8 then binds FADD and becomes activated, initiating a cascade of events that involve the activation of downstream caspases and subsequent cellular apoptosis. […]
Jurkat E6.1 cells are cultured in complete medium consisting of RPMI-1640 (Sigma No)+10% foetal calf serum (Gibco BRL No. 10099-141)+2 mM L-glutamine (Sigma No. G-7513). […] The cells are counted and the density adjusted to 2×10^6 cells/ml with complete medium. […]
Apoptosis of the cells is measured by the quantitation of DNA fragmentation using a ‘Cell Death Detection Assay’ from Boehringer-Mannheim, No. 1544 675. […] OD405 nm is measured 20 minutes after addition of the final substrate in a SPECTRAmax Plus plate reader (Molecular Devices). OD405 nm is plotted versus compound concentration and the IC50 values for the compounds are calculated using the curve-fitting program SOFTmax Pro (Molecular Devices) using the four parameter fit option.

Sequence of recombinant, purified human Caspase-8 (Q14790 217-374 limits assumed): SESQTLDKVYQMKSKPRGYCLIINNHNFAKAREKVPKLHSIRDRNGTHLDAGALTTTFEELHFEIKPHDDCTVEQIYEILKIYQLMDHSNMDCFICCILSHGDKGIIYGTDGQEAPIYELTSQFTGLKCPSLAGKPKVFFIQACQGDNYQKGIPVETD
Sequence of recombinant, purified human Caspase-8 (Q14790 385-479 limits assumed): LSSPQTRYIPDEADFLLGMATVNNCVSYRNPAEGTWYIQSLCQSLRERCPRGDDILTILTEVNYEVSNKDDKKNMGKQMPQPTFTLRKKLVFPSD

For `O=C(O)CC(NC(=O)[C@@H]1CCc2nc3ccccc3c(=O)n21)C(=O)CF` (stereo partly drawn) [Example 1, [3S/R(1S)]-3-(2,3-Dihydro-1H-9-oxo-pyrrolo[2,1-b]quinazolin-1-carboxamido)-5-fluoro-4-oxo-pentanoic acid], the “Kinact, Caspase-3 Activity” value [1] was 160500 M⁻¹ s⁻¹.
For `O=C(O)CC(NC(=O)[C@@H]1CCCc2nc3ccccc3c(=O)n21)C(=O)CF` (stereo partly drawn) [Example 2, [3S/R(9S)]-5-Fluoro-4-oxo-3-(11-oxo-6,7,8,9-tetrahydro-11H-pyrido[2,1-b]quinazolin-9-carboxamido)-pentanoic acid], the “Kinact, Caspase-1 Activity” value [2] was 455000 M⁻¹ s⁻¹.
`O=C(O)CC(NC(=O)[C@@H]1CCc2cc3ccccc3c(=O)n21)C(=O)CF` (stereo partly drawn) [Example 3, [3S/R(3S)]-3-(2,3-Dihydro-1H-5-oxo-pyrrolo[1,2-b]isoquinolin-3-carboxamido)-5-fluoro-4-oxo-pentanoic acid] was tested, and the “Kinact, Caspase-7 Activity” value [3] was 229000 M⁻¹ s⁻¹.
`O=C(O)CC(NC(=O)[C@@H]1CCCc2cc3ccccc3c(=O)n21)C(=O)CF` (stereo partly drawn) [Example 4, [3S/R(4S)]-5-Fluoro-4-oxo-3-(6-oxo-1,2,3,4-tetrahydro-6H-benzo[b]quinolizin-4-carboxamido)-pentanoic acid] was tested, and the IC50 [4] was 569 nM.
`O=C(O)CC(NC(=O)[C@@H]1CCCn2c(=O)c3ccccc3c(=O)n21)C(=O)CF` (stereo partly drawn) [Example 5, [3S/R(1S)]-3-(6,11-Dioxo-1,2,3,4-tetrahydro-pyridazino[1,2-b]phthalazin-1-carboxamido)-5-fluoro-4-oxo-pentanoic acid] was tested, and the “Caspase-8 Kinact” value [5] was 82000 M⁻¹ s⁻¹.
For `O=C(O)CC(NC(=O)[C@@H]1CCCn2c(=O)c3nccnc3c(=O)n21)C(=O)CF` (stereo partly drawn) [Example 6, [3S/R(5S)]-(9,10-Dioxo-5,6,7,8,9,10-hexahydro-1,4,8a,10a-tetraazaanthracene-5-carboxamido)-5-fluoro-4-oxo-3-pentanoic acid], the IC50 (Jurkat E6.1 cells) was 168 nM.
